# In patent US8999956B2, “N-[(het)arylalkyl)] pyrazole(thio)carboxamides and their heterosubstituted analogues” (Bayer Intellectual Property GmbH, priority 2010, dated 2015):
# Like-named read-outs stand apart in the source and are kept apart here.
# Columns and labels:
# [1] = system: Alternaria solani; test: In vivo preventive test on Alternaria solani (tomato); details: 500 ppm of active ingredient, evaluated 7 days after inoculation
# In short: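 Preventive set-up: Alternaria solani spores, as aqueous suspension, applied to young plants one day after spraying. Spray contained active compound formulated with N,N-dimethylformamide and emulsifier, water-diluted to the desired application rate.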
# [2] = log P by HPLC on reversed-phase column (EEC Directive 79/831 Annex V.A8); format: physicochemical
# Experimental: In table 1, the log P values were determined in accordance with EEC Directive 79/831 Annex V.A8 by HPLC (High Performance Liquid Chromatography) on a reversed-phase column (C18), using the method described below: Temperature: 40° C.; […]
# [3] = system: Leptosphaeria nodorum; test: In vivo preventive test on Leptosphaeria nodorum (wheat); details: 500 ppm of active ingredient, evaluated 7-9 days after inoculation
# Experimental: Solvent: 49 parts by weight of N,N-dimethylacetamide Emulsifier: 1 part by weight of alkylaryl polyglycol ether To produce a suitable preparation of active compound, 1 part by weight of active compound is mixed with the stated amounts of solvent and emulsifier, and the concentrate is diluted with water to the desired concentration. To test for preventive activity, young plants are sprayed with a preparation of active compound at the stated rate of application. One day after this treatment, the plants are inoculated with an aqueous spore suspension of Leptosphaeria nodorum.
# [4] = system: Puccinia triticina; test: In vivo preventive test on Puccinia triticina (wheat); details: Table K, 500 ppm of active ingredient, evaluated 8 days after inoculation
# [5] = system: Pyrenophora teres; test: In vivo preventive test on Pyrenophora teres (barley); details: 500 ppm of active ingredient, evaluated 7-9 days after inoculation
# In short: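 Preventive test: young barley plants received a water-diluted spray of compound formulated with DMF solvent plus alkylaryl polyglycol ether emulsifier, at the stated rate. Inoculation with an aqueous spore suspension of Pyrenophora teres followed one day after spraying.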
# [6] = system: aflatoxines produced by Aspergillus parasiticus; test: microbe, parasite or virus in culture; format: cell-based
# [7] = system: Sphaerotheca fuliginea; test: In vivo preventive test on Sphaerotheca fuliginea (cucumber); details: 500 ppm of active ingredient, evaluated 7 days after inoculation
# Experimental: Solvent: 49 parts by weight of N,N-dimethylformamide Emulsifier: 1 part by weight of Alkylarylpolyglycolether To produce a suitable preparation of active compound, 1 part by weight of active compound is mixed with the stated amounts of solvent and emulsifier, and the concentrate is diluted with water to the desired concentration. To test for preventive activity, young plants are sprayed with the preparation of active compound at the stated rate of application. One day after this treatment, the plants are inoculated with an aqueous spore suspension of Sphaerotheca fuliginea. Then the plants are placed in a greenhouse at approximately 23° C. and a relative atmospheric humidity of approximately 70%.
# [8] = system: Aspergillus parasiticus; test: microbe, parasite or virus in culture; format: cell-based
SMILES,Efficacy [1] [%],logP [2],Efficacy [3] [%],Efficacy [4] [%],Efficacy [5] [%],% Inhibition of Aflatoxin at 50 μM [6] [%],Efficacy [7] [%],% Inhibition of fungal growth at 50 μM ([8]; 50 µM) [%],Efficacy ([3]; listed as example E-12 disclosed in patent application WO-2008/101976),% Inhibition of fungal growth at 50 μM [8] [%]
CC(CCc1ccc(Cl)c(Cl)c1)N(C(=O)c1c(C(F)F)nn(C)c1Cl)C1CC1 (racemic) [Example 130],95,4.62,90,70,95,,,,,
CC(CCc1ccc(Cl)c(Cl)c1)NC(=O)c1c(C(F)F)nn(C)c1Cl (racemic) [Example 131],95,3.85,80,,100,,,,,
"CC(C)CC(C)C1CCCC1NC(=O)c1c(C(F)F)nn(C)c1F (single isomer, unassigned) [Example 318]",90,4.27 isomer C,70,,100,100,93,89,,
"Cc1nn(C)c(F)c1C(=O)N(C(C)CCc1ccccc1C(F)(F)F)C1CC1 (stereo not drawn) [E-12 from WO-2008/101976, N-cyclopropyl-5-fluoro-1,3-dimethyl-N-{4-[2-(trifluoromethyl)phenyl]butan-2-yl}-1H-pyrazole-4-carboxamide, reference compound]",,,10,,,,,,less than 10%,
Cn1nc(C(F)F)c(C(=O)N(CCOc2ccc(-c3ccccc3)cc2)C2CC2)c1F [Example 29],80,3.90,80,,100,,,,,
Cc1ccnc(OCC(C)NC(=O)c2c(C(F)F)nn(C)c2Cl)c1 (stereo not drawn) [Example 37],80,2.13,90,,100,,,,,
Cc1cccc(C)c1CCC(C)NC(=O)c1c(C(F)F)nn(C)c1Cl (stereo not drawn) [Example 153],,3.61,,95,100,100,100,,,99
Cc1cccc(C)c1CCC(C)NC(=O)c1c(C(F)F)nn(C)c1F (stereo not drawn) [Example 154],100,3.41,,70,100,100,100,,,100
CC(CNC(=O)c1c(C(F)F)nn(C)c1F)Cc1c(F)cccc1F (stereo not drawn) [Example 157],80,3.02,80,,100,,,,,
CC(CCc1c(Cl)cccc1Cl)NC(=O)c1c(C(F)F)nn(C)c1F (stereo not drawn) [Example 163],100,3.59,,80,100,100,100,,,100
CN(CCCc1cc(Cl)ccc1Cl)C(=S)c1c(C(F)F)nn(C)c1F [Example 168],90,4.11,90,,100,,,,,
CC(CCc1c(Cl)cc(Cl)cc1Cl)N(C(=S)c1c(C(F)F)nn(C)c1F)C1CC1 (stereo not drawn) [Example 219],95,5.81,90,,100,81,100,,,71
Cn1nc(C(F)F)c(C(=O)NC2CCCCC2Oc2ccccc2)c1F (stereo not drawn) [Example 245],90,3.52,90,70,78,,,,,
Cn1nc(C(F)F)c(C(=O)N(C[Si](C)(C)Cc2ccccc2)C2CC2)c1Cl [Example 287],95,4.20,95,,100,,,,,
Cn1nc(C(F)F)c(C(=O)N(C[Si](C)(C)Cc2cccc(Cl)c2)C2CC2)c1Cl [Example 290],95,4.59,80,,100,82,,,,72
Cn1nc(C(F)F)c(C(=O)N(C[Si](C)(C)Cc2cc(Cl)cc(Cl)c2)C2CC2)c1F [Example 293],,4.98,94,,,100,,,,100
Cn1nc(C(F)F)c(C(=O)N(C[Si](C)(C)Cc2ccccc2Cl)C2CC2)c1Cl [Example 294],95,4.56,70,,95,100,,,,84
Cn1nc(C(F)F)c(C(=O)N(C[Si](C)(C)Cc2ccccc2Cl)C2CC2)c1F [Example 295],100,4.41,100,,100,100,,,,100
Cn1nc(C(F)F)c(C(=S)N(C[Si](C)(C)Cc2ccccc2Cl)C2CC2)c1F [Example 296],80,5.00,95,,100,,70,,,
Cn1nc(C(F)F)c(C(=O)N(C[Si](C)(C)Cc2ccc(Cl)cc2Cl)C2CC2)c1F [Example 298],100,5.03,95,,100,100,85,,,100
Cn1nc(C(F)F)c(C(=S)N(C[Si](C)(C)Cc2ccc(Cl)cc2Cl)C2CC2)c1F [Example 299],95,5.57,95,,100,,,,,
CC(CC1CCCCC1NC(=O)c1c(C(F)F)nn(C)c1Cl)C1CC1 (stereo not drawn) [Example 328],95,4.28,80,,95,100,100,,,91
CC(C)CC1CCCCC1NC(=O)c1c(C(F)F)nn(C)c1F (stereo not drawn) [Example 340],100,3.94,,,100,100,90,,,95
Cn1nc(C(F)F)c(C(=O)N(C2CC2)C2CCCCC2C(C)(C)C)c1F (stereo not drawn) [Example 350],90,4.71,,,100,100,100,,,100
CCC1(CNC(=O)c2c(C(F)F)nn(C)c2Cl)CCCCC1 [Example 365],,3.78,90,,,,,,,
CC1CCCC(C)(C)C1CCC(C)N(C(=O)c1c(C(F)F)nn(C)c1F)C1CC1 (stereo not drawn) [Example 367],90,5.81,,,100,100,100,,,100
CC1CCCC(C)(C)C1CCC(C)N(C(=O)c1c(C(F)F)nn(C)c1Cl)C1CC1 (stereo not drawn) [Example 368],80,6.07,,,95,100,93,,,93
